Measurements as given in ChEMBL document CHEMBL2321809 (J Med Chem, 2013).
≈ marks a conversion by molar mass, not a printed value. Calls of active or inactive are those of the source. No cut-off for these calls is given here.

Tested on: not listed separately
Experiment: Inhibition of Beta-lactamase SHV-1 K234R protein mutant in Escherichia coli DH10B by Henri-Michaelis-Menten steady state equation analysis

SMILES	Ki
O=C(Cc1cccs1)NCB(O)O	61 µM

Tested on: Escherichia coli
Experiment: Antimicrobial activity against Escherichia coli DH10B expressing Beta-lactamase SHV K234R mutant by CLSI agar dilution method in presence of ampicillin
Type: functional

SMILES	MIC
O=C(O)[C@H]1/C(=C/CO)O[C@@H]2CC(=O)N21 [CLAVULANIC ACID]	16 µg/mL

Tested on: Escherichia coli
Experiment: Antimicrobial activity against Escherichia coli DH10B by CLSI agar dilution method
Type: functional

SMILES	MIC
CC1(C)S[C@@H]2[C@H](NC(=O)[C@H](N)c3ccccc3)C(=O)N2[C@H]1C(=O)O [AMPICILLIN]	1 µg/mL (≈ 2.86 µM)
CC(=O)OCC1=C(C(=O)O)N2C(=O)[C@@H](NC(=O)Cc3cccs3)[C@H]2SC1 [CEPHALOTHIN]	2 µg/mL (≈ 5.04 µM)
CCN1CCN(C(=O)N[C@@H](C(=O)N[C@@H]2C(=O)N3[C@@H]2SC(C)(C)[C@@H]3C(=O)O)c2ccccc2)C(=O)C1=O [PIPERACILLIN]	1 µg/mL (≈ 1.93 µM)

Tested on: Escherichia coli
Experiment: Antimicrobial activity against Escherichia coli DH10B expressing wild type Beta-lactamase SHV-1 by CLSI agar dilution method
Type: functional

SMILES	MIC
CC1(C)S[C@@H]2[C@H](NC(=O)[C@H](N)c3ccccc3)C(=O)N2[C@H]1C(=O)O [AMPICILLIN]	> 16400 µg/mL
CC(=O)OCC1=C(C(=O)O)N2C(=O)[C@@H](NC(=O)Cc3cccs3)[C@H]2SC1 [CEPHALOTHIN]	256 µg/mL (≈ 646 µM)
CCN1CCN(C(=O)N[C@@H](C(=O)N[C@@H]2C(=O)N3[C@@H]2SC(C)(C)[C@@H]3C(=O)O)c2ccccc2)C(=O)C1=O [PIPERACILLIN]	> 4100 µg/mL

Tested on: Escherichia coli
Experiment: Binding affinity to Beta-lactamase SHV-1 K234R protein mutant in Escherichia coli DH10B assessed as melting temperature at 50 uM by circular dichroism analysis

SMILES	Tm
O=C(Cc1cccs1)NCB(O)O	48.9 °C
O=C(O)[C@H]1/C(=C/CO)O[C@@H]2CC(=O)N21 [CLAVULANIC ACID]	46.1 °C

Tested on: Escherichia coli
Experiment: Ratio of Kcat to Km for wild type Beta-lactamase SHV-1 in Escherichia coli DH10B

SMILES	kcat/Km
O=C(Cc1cccs1)N[C@@H]1C(=O)N2C(C(=O)O)=C(/C=C/c3ccc([N+](=O)[O-])cc3[N+](=O)[O-])CS[C@H]12	14.1 µM⁻¹ s⁻¹
CC(=O)OCC1=C(C(=O)O)N2C(=O)[C@@H](NC(=O)Cc3cccs3)[C@H]2SC1 [CEPHALOTHIN]	0.87 µM⁻¹ s⁻¹
CCN1CCN(C(=O)N[C@@H](C(=O)N[C@@H]2C(=O)N3[C@@H]2SC(C)(C)[C@@H]3C(=O)O)c2ccccc2)C(=O)C1=O [PIPERACILLIN]	15.8 µM⁻¹ s⁻¹

Tested on: Escherichia coli
Experiment: Activity of wild type Beta-lactamase SHV-1 in Escherichia coli DH10B by Henri-Michaelis-Menten steady state equation analysis

SMILES	Km	kcat
O=C(Cc1cccs1)N[C@@H]1C(=O)N2C(C(=O)O)=C(/C=C/c3ccc([N+](=O)[O-])cc3[N+](=O)[O-])CS[C@H]12	24.7 µM	348 s⁻¹
CC(=O)OCC1=C(C(=O)O)N2C(=O)[C@@H](NC(=O)Cc3cccs3)[C@H]2SC1 [CEPHALOTHIN]	48.9 µM	42.6 s⁻¹
CCN1CCN(C(=O)N[C@@H](C(=O)N[C@@H]2C(=O)N3[C@@H]2SC(C)(C)[C@@H]3C(=O)O)c2ccccc2)C(=O)C1=O [PIPERACILLIN]	74.6 µM	1180 s⁻¹

Tested on: Escherichia coli
Experiment: Antimicrobial activity against Escherichia coli DH10B expressing Beta-lactamase SHV-1 K234A protein mutant by CLSI agar dilution method
Type: functional

SMILES	MIC
CC1(C)S[C@@H]2[C@H](NC(=O)[C@H](N)c3ccccc3)C(=O)N2[C@H]1C(=O)O [AMPICILLIN]	32 µg/mL (≈ 91.6 µM)
CC(=O)OCC1=C(C(=O)O)N2C(=O)[C@@H](NC(=O)Cc3cccs3)[C@H]2SC1 [CEPHALOTHIN]	8 µg/mL (≈ 20.2 µM)
CCN1CCN(C(=O)N[C@@H](C(=O)N[C@@H]2C(=O)N3[C@@H]2SC(C)(C)[C@@H]3C(=O)O)c2ccccc2)C(=O)C1=O [PIPERACILLIN]	8 µg/mL (≈ 15.5 µM)

Tested on: Escherichia coli
Experiment: Binding affinity to Beta-lactamase SHV-1 K234R protein mutant in Escherichia coli DH10B assessed as change in secondary structure at 50 uM by circular dichroism analysis

SMILES	inhibition
O=C(Cc1cccs1)NCB(O)O	inactive
O=C(O)[C@H]1/C(=C/CO)O[C@@H]2CC(=O)N21 [CLAVULANIC ACID]	Active

Tested on: Escherichia coli
Experiment: Antimicrobial activity against Escherichia coli DH10B expressing Beta-lactamase SHV-1 K234X protein mutant by CLSI agar dilution method
Type: functional

SMILES	MIC
CC1(C)S[C@@H]2[C@H](NC(=O)[C@H](N)c3ccccc3)C(=O)N2[C@H]1C(=O)O [AMPICILLIN]	4 µg/mL (≈ 11.4 µM)
CC(=O)OCC1=C(C(=O)O)N2C(=O)[C@@H](NC(=O)Cc3cccs3)[C@H]2SC1 [CEPHALOTHIN]	8 µg/mL (≈ 20.2 µM)
CCN1CCN(C(=O)N[C@@H](C(=O)N[C@@H]2C(=O)N3[C@@H]2SC(C)(C)[C@@H]3C(=O)O)c2ccccc2)C(=O)C1=O [PIPERACILLIN]	4 µg/mL (≈ 7.73 µM)

Tested on: Escherichia coli
Experiment: Activity of Beta-lactamase SHV-1 K234R protein mutant in Escherichia coli DH10B by Henri-Michaelis-Menten steady state equation analysis

SMILES	Km	kcat
O=C(Cc1cccs1)N[C@@H]1C(=O)N2C(C(=O)O)=C(/C=C/c3ccc([N+](=O)[O-])cc3[N+](=O)[O-])CS[C@H]12	10.4 µM	45.2 s⁻¹
CC(=O)OCC1=C(C(=O)O)N2C(=O)[C@@H](NC(=O)Cc3cccs3)[C@H]2SC1 [CEPHALOTHIN]	29 µM	–
CCN1CCN(C(=O)N[C@@H](C(=O)N[C@@H]2C(=O)N3[C@@H]2SC(C)(C)[C@@H]3C(=O)O)c2ccccc2)C(=O)C1=O [PIPERACILLIN]	305 µM	–

Tested on: Escherichia coli
Experiment: Antimicrobial activity against Escherichia coli DH10B by CLSI agar dilution method in presence of ampicillin
Type: functional

SMILES	MIC
O=C(O)[C@H]1/C(=C/CO)O[C@@H]2CC(=O)N21 [CLAVULANIC ACID]	< 0.06 µg/mL

Tested on: Escherichia coli
Experiment: Binding affinity to wild type Beta-lactamase SHV-1 in Escherichia coli DH10B assessed as change in secondary structure at 50 uM by circular dichroism analysis

SMILES	inhibition
O=C(Cc1cccs1)NCB(O)O	Active
O=C(O)[C@H]1/C(=C/CO)O[C@@H]2CC(=O)N21 [CLAVULANIC ACID]	Active

Tested on: Escherichia coli
Experiment: Antimicrobial activity against Escherichia coli DH10B expressing Beta-lactamase SHV-1 K234R protein mutant by CLSI agar dilution method
Type: functional

SMILES	MIC
CC1(C)S[C@@H]2[C@H](NC(=O)[C@H](N)c3ccccc3)C(=O)N2[C@H]1C(=O)O [AMPICILLIN]	16400 µg/mL (≈ 46900 µM)
CC(=O)OCC1=C(C(=O)O)N2C(=O)[C@@H](NC(=O)Cc3cccs3)[C@H]2SC1 [CEPHALOTHIN]	16 µg/mL (≈ 40.4 µM)
CCN1CCN(C(=O)N[C@@H](C(=O)N[C@@H]2C(=O)N3[C@@H]2SC(C)(C)[C@@H]3C(=O)O)c2ccccc2)C(=O)C1=O [PIPERACILLIN]	2050 µg/mL (≈ 3960 µM)

Tested on: Escherichia coli
Experiment: Binding affinity to wild type Beta-lactamase SHV-1 in Escherichia coli DH10B assessed as melting temperature at 50 uM by circular dichroism analysis

SMILES	Tm
O=C(Cc1cccs1)NCB(O)O	55.1 °C
O=C(O)[C@H]1/C(=C/CO)O[C@@H]2CC(=O)N21 [CLAVULANIC ACID]	55 °C

Tested on: Escherichia coli
Experiment: Antimicrobial activity against Escherichia coli DH10B expressing wild type Beta-lactamase SHV1 gene by CLSI agar dilution method in presence of ampicillin
Type: functional

SMILES	MIC
O=C(O)[C@H]1/C(=C/CO)O[C@@H]2CC(=O)N21 [CLAVULANIC ACID]	4 µg/mL

Tested on: Escherichia coli
Experiment: Ratio of Kcat to Km for Beta-lactamase SHV-1 K234R protein mutant in Escherichia coli DH10B

SMILES	kcat/Km
O=C(Cc1cccs1)N[C@@H]1C(=O)N2C(C(=O)O)=C(/C=C/c3ccc([N+](=O)[O-])cc3[N+](=O)[O-])CS[C@H]12	4.3 µM⁻¹ s⁻¹

Tested on: not listed separately
Experiment: Inhibition of wild type Beta-lactamase SHV-1 in Escherichia coli DH10B by Henri-Michaelis-Menten steady state equation analysis

SMILES	Ki
O=C(Cc1cccs1)NCB(O)O	20 µM
